Source: US20200055871A1, “ACTIVATORS OF THE RETINOIC ACID INDUCIBLE GENE "RIG-I" PATHWAY AND METHODS OF USE THEREOF” (Kineta Immuno-Oncology LLC, priority 2018, published 2020)

Key:
[1] = test system: RIG-I deficient CT26 RIG-I−/− cells; assay: CXCL10 secretion by RIG-I deficient CT26 RIG-I−/− cells (ELISA); assay type: cell-based, murine; settings: compound 5 to 20 μM, 24 h; further: key: −: about 0 pg/mL of CXCL10, or below the level of quantitation
Method in brief: (§1)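 CT26 murine colon carcinoma cells, parental or CRISPR RIG-I−/−, seeded and grown 24 hr at 37° C, then treated with compounds at 10 μM, or at 5 or 20 μM for some. Secreted CXCL10 measured by ELISA in supernatants 24 h after treatment and reported in pg/mL bands.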

[2] = test system: murine CT26 colon carcinoma cells; assay: Compound-induced immunogenic cell death: apoptosis (Annexin V) and calreticulin translocation by flow cytometry; assay type: cell-based; settings: 18 h after treatment, dose titration, FIG. 1
Protocol: To determine if the RIG-I agonist compounds induce immunogenic cell death in cancer cells, induction of apoptosis and the translocation of calreticulin (CRT) to the cell surface in murine CT26 colon carcinoma cells were evaluated. The translocation of CRT occurs as part of a specific RIG-I dependent danger-signaling system, and the presence of CRT on the cell membrane promotes tumor antigen uptake by the dendritic cells and leads to the induction of an antigen-specific T cell response
The induction of apoptosis and the CRT translocation were measured by flow cytometry. […] Cells were harvested 18 h after treatment and then prepared for flow cytometry using an Annexin V staining kit (Biolegend) for quantification of apoptosis, an anti-CRT antibody (Abgent) for calreticulin translocation, and the Live/Dead-Violet staining kit (Thermofisher) for cell viability. Induction of apoptosis and translocation of calreticulin (CRT) to cell surface by live cells was determined by tri-color flow cytometry using FITC-labeled Annexin V, Live/Dead-iolet (LDV), and APC-anti-CRT. Apoptotic cells were defined as Annexin V^+ and calreticulin translocation to cell surface was quantified by mean fluorescent intensity (MFI) of calreticulin^+ live cells (CRT^+ LDV^−). […]

[3] = test system: IRF3-deficient THP1-Lucia™ ISG IRF3−/− cells; assay: THP1-Lucia ISG IRF3−/− reporter assay (IRF3-deficient control cells); assay type: cell-based, human; settings: compound 5 to 20 μM, 18 h
Protocol: The promoter was comprised of five IFN-stimulated response elements (ISRE) fused to an ISG54 minimal promoter which is unresponsive to NF-kB or AP-1 pathways. […] The IRF3-deficient THP1-Lucia™ ISG IRF3−/−reporter cell line was generated by CRISPR technology from the parent THP1-Lucia™ ISG reporter cell line.
THP1-Lucia™ ISG cells and IRF3-deficient THP1-Lucia™ ISG IRF3−/−cells were differentiated with PMA (100 ng/ml) and stimulated with compounds at the indicated concentrations (5 to 20 μM), positive control, or not treated (background). Luciferase secretion was quantified using the QUANTI-Luc luciferase assay system (InvivoGen) 18 h after stimulation. Data are shown as fold increase luciferase activity over background in Table 7 and represent the IRF3-dependent ISG54 promoter activity by the THP1-Lucia™ ISG cells in response to compounds. […] The fold increase of compounds (10 μM, *20 μM, **5 μM) induced IRF3 dependent luciferase activity is indicated as follows: “≠” indicates less than 2.4 fold increase; “+” indicates a 2.4-4.9 fold increase; “++” indicates a 5-9.9 fold increase; “+++” indicates a 10-19 fold increase; “++++” indicates a 20-39 fold increase; “+++++” indicates greater than or equal to 40 fold increase.

[4] = test system: IRF3 signaling pathway in THP1-Lucia™ ISG cells; assay: THP1-Lucia ISG reporter assay: induction of IRF3-dependent gene expression (secreted luciferase); assay type: cell-based, human; settings: 10 μM compound, PMA-differentiated cells, 18 h after stimulation
Method in brief: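 PMA-differentiated THP-1 reporter cells (ISRE/ISG54 promoter driving secreted luciferase), plus CRISPR IRF3−/− line, treated with compounds at 5–20 μM (mostly 10 μM). Luciferase measured 18 h later; values are fold increase over untreated background, binned from <2.4 to ≥40.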

[5] = test system: murine CT26 colon carcinoma cells; assay: RIG-I dependent CXCL10 secretion by CT26 cells (ELISA); assay type: cell-based; settings: supernatant 24 h after stimulation
Method in brief: as §1

Compound	CXCL10 secretion, CT26 RIG-I−/− [1]	induction of immunogenic cell death (apoptosis, calreticulin translocation to cell surface) [2]	fold increase of luciferase activity, THP1 ISG IRF3−/− [3]	fold increase of IRF3-dependent luciferase activity over background, THP1 ISG [4]	CXCL10 secretion, CT26 ([5]; 10 μM compound)	CXCL10 secretion, CT26 ([5]; 5 μM compound (**))	CXCL10 secretion, CT26 ([5]; 20 μM compound (*))
N-{5,12-dithia-3-azatricyclo[7.3.0.0^2,^6]dodeca-1,3,6,8,10-pentaen-11-yl}-3-[4-(morpholin-4-yl)butoxy]-[1,1′-biphenyl]-4-carboxamide [Example 62]	−	induction of immunogenic cell death	− (less than 0.5 fold above baseline was considered below the level of quantitation)	+++ (a 10-19 fold increase)	++++ (800 to 1599 pg/mL)		
N-[11-(methylsulfanyl)-3,10-dithia-5,12-diazatricyclo[7.3.0.0^2,^6]dodeca-1,4,6,8,11-pentaen-4-yl]-3-[4-(morpholin-4-yl)butoxy]naphthalene-2-carboxamide [Example 37]	−		− (less than 0.5 fold above baseline was considered below the level of quantitation)	+++ (a 10-19 fold increase)	++++ (800 to 1599 pg/mL)		
N-{5,12-dithia-3-azatricyclo[7.3.0.0^2,^6]dodeca-1,3,6,8,10-pentaen-11-yl}-3-[2-(morpholin-4-yl)ethoxy]-[1,1′-biphenyl]-4-carboxamide [Example 61]	−		− (less than 0.5 fold above baseline was considered below the level of quantitation)	++++ (a 20-39 fold increase)		++** (200-399 pg/mL)	
N-(3-bromophenyl)-11-methyl-3,10-dithia-5,12-diazatricyclo[7.3.0.0^2,^6]dodeca-1,4,6,8,11-pentaene-4-carboxamide [Example 10]	−		− (less than 0.5 fold above baseline was considered below the level of quantitation)	+ (a 2.4-4.9 fold increase)	+++ (400-799 pg/mL)		
O=C(Nc1nc2ccc3occc3c2s1)c1cc2ccccc2cc1OCCCCN1CCOCC1 [Example 50, 3-[4-(morpholin-4-yl)butoxy]-N-{10-oxa-3-thia-5-azatricyclo[7.3.0.0^2,^6]dodeca-1,4,6,8,11-pentaen-4-yl}naphthalene-2-carboxamide]	−		− (less than 0.5 fold above baseline was considered below the level of quantitation)	+++ (a 10-19 fold increase)	++ (200-399 pg/mL)		
O=C(Nc1cc2ccc3scnc3c2s1)c1cc2c(cc1OCCN1CCOCC1)OCO2 [Example 63, N-{5,12-dithia-3-azatricyclo[7.3.0.0^2,^6]dodeca-1,3,6,8,10-pentaen-11-yl}-6-[2-(morpholin-4-yl)ethoxy]-2H-1,3-benzodioxole-5-carboxamide]	−		− (less than 0.5 fold above baseline was considered below the level of quantitation)	≠ (less than 2.4 fold increase)	≠ (less than 100 pg/mL)		
O=C(Nc1nc2ccc3ocnc3c2s1)c1cc2ccccc2cc1OCCN1CCOCC1 [Example 52, 3-[2-(morpholin-4-yl)ethoxy]-N-{10-oxa-3-thia-5,12-diazatricyclo[7.3.0.0^2,^6]dodeca-1,4,6,8,11-pentaen-4-yl}naphthalene-2-carboxamide]	−		− (less than 0.5 fold above baseline was considered below the level of quantitation)	+ (a 2.4-4.9 fold increase)	+ (100-199 pg/mL)		
O=C(Nc1cc2ccc3scnc3c2o1)c1cc2ccccc2cc1OCCN1CCOCC1 [Example 57, 3-[2-(morpholin-4-yl)ethoxy]-N-{12-oxa-5-thia-3-azatricyclo [7.3.0.0^2,^6]dodeca-1,3,6,8,10-pentaen-11-yl}naphthalene-2-carboxamide]	−		− (less than 0.5 fold above baseline was considered below the level of quantitation)	+++ (a 10-19 fold increase)			++* (200-399 pg/mL)
O=C(Nc1nc2ccc3[nH]cnc3c2s1)c1cc2ccccc2cc1OCCN1CCOCC1 [Example 72, 3-[2-(morpholin-4-yl)ethoxy]-N-{3-thia-5,10,12-triazatricyclo[7.3.0.0^2,^6]dodeca-1,4,6,8,11-pentaen-4-yl}naphthalene-2-carboxamide]	−		− (less than 0.5 fold above baseline was considered below the level of quantitation)	++ (a 5-9.9 fold increase)	+++ (400-799 pg/mL)		
O=C(Nc1cc2ccc3scnc3c2s1)c1cc2ccccc2cc1OCCN1CCOCC1 [Example 55, N-{5,12-dithia-3-azatricyclo[7.3.0.0^2,^6]dodeca-1,3,6,8,10-pentaen-11-yl}-3-[2-(morpholin-4-yl)ethoxy]naphthalene-2-carboxamide]	−		− (less than 0.5 fold above baseline was considered below the level of quantitation)	+++ (a 10-19 fold increase)	≠ (less than 100 pg/mL)		
O=C(Nc1nc2ccc3ocnc3c2s1)c1cc2ccccc2cc1OCCCCN1CCOCC1 [Example 53, 3-[4-(morpholin-4-yl)butoxy]-N-{10-oxa-3-thia-5,12-diazatricyclo [7.3.0.0^2,^6]dodeca-1,4,6,8,11-pentaen-4-yl}naphthalene-2-carboxamide]	−		− (less than 0.5 fold above baseline was considered below the level of quantitation)	++ (a 5-9.9 fold increase)	+++++ (greater than or equal to 1600 pg/ml)		
